One block for each compound: values may come before it.
What was measured:
Format in all cases: physicochemical
[1] = Light sensitivity of solutions and suspensions; conditions: in particular above ambient temperature
[2] = Hygroscopicity: water adsorption when stored under humid conditions; conditions: hygroscopic, water released between 50° C. and 200° C. when heated at 10° C./minute
Experimental: Polymorph form A is a solid powder with a particle size in the range from 1 to 500 μm, preferably 5 to 300 μm, and more preferably 5 to 200 μm. The polymorph A is hygroscopic and adsorbs water to a content of about 5 percent by weight (when stored under humid conditions), which is continuously released between 50° C. and 200° C., when heated at a rate of 10° C./minute. The polymorph A is especially suitable as an intermediate and starting material to produce stable polymorph forms.

[3] = Thermodynamic stability of the crystalline forms (own investigations); conditions: compared with the other crystalline forms
From the text: Own investigations have shown that there exist two distinct crystalline forms, hereinafter referred to as form A and form B, as well as a number of further solvates, in particular the methanol, ethanol, isopropanol, dichloromethane, acetone, methyl ethyl ketone and tetrahydrofuran solvates.

sensitivity to light [1]: sensitive to light
Compound: COc1ccccc1Oc1c(NS(=O)(=O)c2ccc(C)cn2)nc(-c2ccncc2)nc1OC [SPP301, 5-methyl-pyridine-2-sulfonic acid [6-methoxy-5-(2-methoxy-phenoxy)-2-pyridin-4-yl-pyrimidin-4-yl]-amide]

adsorbs water to a content of [2]: about 5 percent by weight
Compound: COc1ccccc1Oc1c(NS(=O)(=O)c2ccc(C)cn2)nc(-c2ccncc2)nc1OC [form A, 5-methyl-pyridine-2-sulfonic acid [6-methoxy-5-(2-methoxy-phenoxy)-2-pyridin-4-yl-pyrimidin-4-yl]-amide]

thermodynamic stability of crystalline form [3]: thermodynamically stable
Compound: COc1ccccc1Oc1c(NS(=O)(=O)c2ccc(C)cn2)nc(-c2ccncc2)nc1OC [form B, 5-methyl-pyridine-2-sulfonic acid [6-methoxy-5-(2-methoxy-phenoxy)-2-pyridin-4-yl-pyrimidin-4-yl]-amide]
